Source: paper PMC6385481 (Chemical Science, 2018)
“Also recorded” adds a separate entry of the source.

What was measured:
[1] = target: T1, TAP (core-TAP1mVenus/core-TAP2mCerulean containing crude membranes from Pichia pastoris) (Homo sapiens, UniProt Q03518+Q03519); assay: Filter-based peptide competition assay; type: binding; settings: 100 μM inhibitor; illumination at 365 nm
T1 sequence (Q03518 167-748 limits assumed): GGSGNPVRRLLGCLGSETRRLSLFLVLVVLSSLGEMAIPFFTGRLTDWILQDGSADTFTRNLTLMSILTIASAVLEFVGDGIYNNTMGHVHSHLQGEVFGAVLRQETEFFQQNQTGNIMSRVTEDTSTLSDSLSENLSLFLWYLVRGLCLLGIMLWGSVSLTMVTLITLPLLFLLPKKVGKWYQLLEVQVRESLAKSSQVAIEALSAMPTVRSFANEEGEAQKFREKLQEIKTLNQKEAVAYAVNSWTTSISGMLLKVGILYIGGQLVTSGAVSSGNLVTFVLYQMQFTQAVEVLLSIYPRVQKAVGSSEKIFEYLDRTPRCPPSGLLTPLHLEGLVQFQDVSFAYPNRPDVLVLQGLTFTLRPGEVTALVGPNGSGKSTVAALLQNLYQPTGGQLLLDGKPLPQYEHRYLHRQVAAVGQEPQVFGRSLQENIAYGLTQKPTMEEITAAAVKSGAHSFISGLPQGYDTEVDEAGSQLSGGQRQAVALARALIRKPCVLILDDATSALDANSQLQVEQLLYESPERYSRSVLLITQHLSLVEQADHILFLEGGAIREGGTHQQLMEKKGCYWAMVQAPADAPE
T1 sequence (Q03519 125-686 limits assumed): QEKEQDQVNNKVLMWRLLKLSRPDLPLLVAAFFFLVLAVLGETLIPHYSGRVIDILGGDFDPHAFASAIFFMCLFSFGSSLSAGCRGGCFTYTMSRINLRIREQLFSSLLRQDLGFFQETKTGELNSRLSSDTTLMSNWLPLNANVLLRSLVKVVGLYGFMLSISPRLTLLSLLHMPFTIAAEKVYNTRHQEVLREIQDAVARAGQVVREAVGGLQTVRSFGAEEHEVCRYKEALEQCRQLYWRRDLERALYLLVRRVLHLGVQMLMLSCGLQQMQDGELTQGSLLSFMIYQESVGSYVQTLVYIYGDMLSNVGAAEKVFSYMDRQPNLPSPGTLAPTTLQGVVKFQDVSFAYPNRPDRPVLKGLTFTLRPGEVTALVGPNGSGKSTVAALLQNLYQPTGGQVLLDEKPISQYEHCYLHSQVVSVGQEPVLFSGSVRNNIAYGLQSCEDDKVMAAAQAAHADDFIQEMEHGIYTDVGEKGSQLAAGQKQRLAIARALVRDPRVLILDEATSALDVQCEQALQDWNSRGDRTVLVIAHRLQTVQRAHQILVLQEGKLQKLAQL

TAP = TAP (Homo sapiens, UniProt Q03518+Q03519); assay: TAP-dependent peptide transport of NST-F in Raji microsomes; type: biochemical; settings: read-out: inhibition of TAP-dependent peptide translocation before illumination
TAP, sequence (Q03518 whole entry): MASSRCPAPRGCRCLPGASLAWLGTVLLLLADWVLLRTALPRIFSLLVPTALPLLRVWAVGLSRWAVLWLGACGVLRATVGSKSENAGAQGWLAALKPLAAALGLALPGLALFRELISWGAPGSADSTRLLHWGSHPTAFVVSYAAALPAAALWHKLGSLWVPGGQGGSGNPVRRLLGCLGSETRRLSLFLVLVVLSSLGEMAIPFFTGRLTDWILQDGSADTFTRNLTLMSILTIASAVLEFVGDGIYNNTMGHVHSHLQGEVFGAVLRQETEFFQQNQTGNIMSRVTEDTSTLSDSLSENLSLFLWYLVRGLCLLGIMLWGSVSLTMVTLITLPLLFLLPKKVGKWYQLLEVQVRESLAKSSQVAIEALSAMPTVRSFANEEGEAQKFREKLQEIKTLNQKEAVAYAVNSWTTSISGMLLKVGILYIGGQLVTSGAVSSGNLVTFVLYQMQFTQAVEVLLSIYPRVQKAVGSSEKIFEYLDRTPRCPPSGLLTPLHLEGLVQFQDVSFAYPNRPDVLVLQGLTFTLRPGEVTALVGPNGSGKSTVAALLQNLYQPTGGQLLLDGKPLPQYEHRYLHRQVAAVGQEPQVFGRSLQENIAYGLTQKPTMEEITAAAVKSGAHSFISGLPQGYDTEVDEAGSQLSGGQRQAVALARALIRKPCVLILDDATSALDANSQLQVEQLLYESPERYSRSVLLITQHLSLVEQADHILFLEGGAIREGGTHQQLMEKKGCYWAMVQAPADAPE
TAP, sequence (Q03519 whole entry): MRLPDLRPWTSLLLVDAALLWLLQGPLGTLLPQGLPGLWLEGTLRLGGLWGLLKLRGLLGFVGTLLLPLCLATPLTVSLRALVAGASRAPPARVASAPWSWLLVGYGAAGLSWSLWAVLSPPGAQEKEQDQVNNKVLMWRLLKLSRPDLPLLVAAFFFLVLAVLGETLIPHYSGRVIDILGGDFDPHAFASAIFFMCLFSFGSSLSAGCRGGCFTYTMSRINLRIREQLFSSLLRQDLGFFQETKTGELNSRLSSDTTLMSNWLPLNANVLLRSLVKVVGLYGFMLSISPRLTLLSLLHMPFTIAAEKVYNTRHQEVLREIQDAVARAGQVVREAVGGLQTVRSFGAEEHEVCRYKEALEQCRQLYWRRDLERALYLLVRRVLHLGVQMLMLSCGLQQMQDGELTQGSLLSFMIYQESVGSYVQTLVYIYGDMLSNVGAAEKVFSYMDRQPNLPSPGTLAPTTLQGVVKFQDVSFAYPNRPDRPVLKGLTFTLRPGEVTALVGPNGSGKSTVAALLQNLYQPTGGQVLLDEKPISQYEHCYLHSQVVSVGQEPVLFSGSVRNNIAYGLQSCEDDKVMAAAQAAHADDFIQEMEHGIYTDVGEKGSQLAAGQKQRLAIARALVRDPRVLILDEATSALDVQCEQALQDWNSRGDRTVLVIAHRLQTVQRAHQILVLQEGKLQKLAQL
TAP, sequence (O15533 21-448 partner): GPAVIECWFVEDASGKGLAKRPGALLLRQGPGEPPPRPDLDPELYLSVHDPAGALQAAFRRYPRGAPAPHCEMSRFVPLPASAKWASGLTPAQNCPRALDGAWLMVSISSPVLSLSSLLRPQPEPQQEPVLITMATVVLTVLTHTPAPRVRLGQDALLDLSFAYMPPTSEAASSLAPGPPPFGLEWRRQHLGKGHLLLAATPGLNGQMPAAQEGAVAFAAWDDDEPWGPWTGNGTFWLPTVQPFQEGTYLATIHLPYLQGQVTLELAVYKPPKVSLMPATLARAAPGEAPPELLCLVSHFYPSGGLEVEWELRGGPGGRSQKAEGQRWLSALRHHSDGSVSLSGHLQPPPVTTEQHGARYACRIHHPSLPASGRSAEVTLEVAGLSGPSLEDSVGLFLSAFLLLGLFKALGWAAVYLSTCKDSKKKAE
TAP, sequence (P30101 25-505 partner): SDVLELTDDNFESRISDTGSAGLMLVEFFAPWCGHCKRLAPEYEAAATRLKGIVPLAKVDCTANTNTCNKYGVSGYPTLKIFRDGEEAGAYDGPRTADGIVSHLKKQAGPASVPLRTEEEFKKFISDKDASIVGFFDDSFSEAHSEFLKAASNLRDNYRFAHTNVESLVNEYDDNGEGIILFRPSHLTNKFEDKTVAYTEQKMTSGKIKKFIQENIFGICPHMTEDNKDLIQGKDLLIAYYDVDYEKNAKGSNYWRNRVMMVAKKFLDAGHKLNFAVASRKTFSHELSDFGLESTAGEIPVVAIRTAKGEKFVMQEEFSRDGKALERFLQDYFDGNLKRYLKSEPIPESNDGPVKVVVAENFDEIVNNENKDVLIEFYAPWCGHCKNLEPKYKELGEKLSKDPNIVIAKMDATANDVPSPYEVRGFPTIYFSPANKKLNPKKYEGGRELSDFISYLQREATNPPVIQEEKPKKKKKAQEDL

`CC[C@H](C)[C@H](NC(=O)[C@H](CCC(=O)O)NC(=O)[C@H](CC(=O)O)NC(=O)[C@H](CCCNC(=N)N)NC(=O)[C@@H](NC(=O)[C@H](CC(=O)O)NC(=O)[C@H](C)NC(=O)[C@H](Cc1ccc(O)cc1)NC(=O)[C@@H](NC(=O)[C@H](CCCNC(=N)N)NC(=O)[C@@H]1CCCN1C(=O)CNC(=O)[C@@H](NC(=O)[C@H](CCCNC(=N)N)NC(=O)[C@H](CCSC)NC(=O)[C@H](CC(N)=O)NC(=O)[C@H](CC(=O)O)NC(=O)[C@H](CC(C)C)NC(=O)[C@H](Cc1ccccc1)NC(=O)[C@@H](NC(=O)[C@H](CC(=O)O)NC(=O)[C@H](C)NC(=O)[C@H](CCSC)NC(=O)[C@H](CCC(=O)O)NC(=O)[C@H](CC(C)C)NC(=O)[C@H](C)NC(=O)[C@H](Cc1c[nH]c2ccccc12)NC(=O)[C@@H](N)CO)[C@@H](C)O)C(C)C)[C@@H](C)O)C(C)C)C(=O)N[C@@H](CC(N)=O)C(=O)N[C@@H](CCCCN)C(=O)N[C@@H](CCCNC(=N)N)C(=O)NCC(=O)N[C@@H](CCCNC(=N)N)C(=O)O` [ICP47_2–34] was tested, and the “effect of illumination on TAP peptide binding blocked by inhibitor” value [1] was “not affected by illumination; also recorded: did not recover the TAP activity” and the inhibition at 5 µM (TAP) was over 85%.
